From patent US20230248626A1, “Compositions Comprising (Bio)-Alkanediols” (Symrise AG, priority 0001, published 2023)
Converted amounts (≈) assume the structure as drawn.

Legend:
Type in all cases: cell-based
[1] = test system: Staphylococcus aureus; assay: MIC test (growth inhibition, 96 well plates, OD); conditions: read-out: Minimum Inhibitory Concentration (MIC)
Protocol: (§1) The MIC test is a test on growth inhibition. Estimation of Minimum Inhibitory Concentration (MIC) is executed in 96 well plates. Through the comparison of bacterial growth with positive and negative controls via optical density (OD), different concentrations of given test substances are evaluated.
(§2) Bacteria are cultivated under adjusted conditions based on information of the German Collection of Microorganisms and Cell Cultures (DSMZ) and stored in 50% Glycerol prior to use. Afterwards, the following method was applied: Adding growth medium (according to microorganism) to each well of the microplate. Adding the test-substances in different concentrations, positive controls (water controls only with medium) and negative controls (benchmarks according to organism). Adding the microorganism in a concentration of 10^6 CFU/ml (CFU=colony forming units). Incubation of the microplates at appropriate conditions.
(§3) According to resulting growth, substance concentrations are labelled either as inhibiting or not and MIC is defined as the lowest concentration where a complete growth inhibition is visible. Experiments at concentration limits (highest concentration labelled as growth and lowest concentration labelled as inhibiting) are performed at least twice.

[2] = test system: Escherichia coli; assay: MIC test (growth inhibition, 96 well plates, OD); conditions: read-out: Minimum Inhibitory Concentration (MIC)
Protocol: as §1, §2, §3

[3] = test system: Propionibacterium acnes; assay: MIC test (growth inhibition, 96 well plates, OD); conditions: Cutibacterium acnes; read-out: Minimum Inhibitory Concentration (MIC)
Protocol: as §1, §2, §3

[4] = test system: Candida albicans; assay: MIC test (growth inhibition, 96 well plates, OD); conditions: read-out: Minimum Inhibitory Concentration (MIC)
Protocol: as §1, §2, §3

[5] = test system: Staphylococcus hominis; assay: MIC test (growth inhibition, 96 well plates, OD); conditions: read-out: Minimum Inhibitory Concentration (MIC)
Protocol: as §1, §2, §3

[6] = test system: Corynebacterium jeikeium; assay: MIC test (growth inhibition, 96 well plates, OD); conditions: read-out: Minimum Inhibitory Concentration (MIC)
Protocol: as §1, §2, §3

[7] = test system: Aspergillus brasiliensis; assay: MIC and Kull synergy index of 1,2-/2,3-alkanediol mixtures; conditions: single 2,3-alkanediol, read-out: MIC Component B
[8] = test system: Staphylococcus aureus (SA); assay: Preservation efficacy test (PET), European Pharmacopoeia 5.1.3
Protocol: (§4) The preservation efficacy test (PET) was performed in accordance with European Pharmacopoeia § 5.1.3: The test is a reference European Pharmacopoeia method, that is to be used to evaluate the preservation system of a cosmetic or pharmaceutical preparation. The test consists of challenging the preparation under test, with prescribed inoculums of suitable microorganisms. The preservation porperties of the preparation are adequate if, in the conditions of the test, there is a significant fall or no increase, as appropriate, in the number of microorganisms in the inoculated preparations after the time prescribed.
(§5) The test microorganisms which were used, are the following:
(§6) Pseudomonas aeruginosa (PA) (bacterium); Staphylococcus aureus (SA) (bacterium); Escherichia coli (EC) (bacterium); Candida albicans (CA) (yeast); and Aspergillus brasiliensis (AB) (fungus).

[9] = test system: Candida albicans (CA); assay: as above
Protocol: as §4, §5, §6

[10] = test system: Escherichia coli (EC); assay: as above
Protocol: as §4, §5, §6

[11] = test system: Aspergillus brasiliensis (AB); assay: as above
Protocol: as §4, §5, §6

[12] = test system: Pseudomonas aeruginosa (PA); assay: as above
Protocol: as §4, §5, §6

[13] = test system: human sebaceous glands; assay: Sebum production of micro-dissected, cultured human sebaceous glands (lipids/proteins after six days); set-up: sebum reduction: concentration or dose not given beside the values; conditions: compared to untreated control; six days; single donor (FIG. 4)
Protocol: Additional tests were performed with human sebaceous glands in order to verify the modulatory activity of different 1,2-alkanediols and 2,3-alkanediols on sebum secretion. Several microbial species on the skin are lipid dependent and feed on the human sebum (e.g. Corynebacterium, Propionibacterium). Accordingly, sebum reduction can indirectly support the reduction of microorganisms on the skin and in this way also indirectly support e.g. dandruff or acne reduction.
For these experiments sebaceous glands had been micro-dissected and cultured with medium. The medium without any supplement served as untreated control. Medium with 5 μM Capsaicin served as positive control. Additionally, culture medium was supplemented with different concentrations of alkanediols. After six days the sebaceous glands were collected and lipids and proteins quantified. The total lipid amount being representative of sebum production was obtained by normalizing the quantified lipids upon the quantified proteins (i.e. mg of lipids/mg of proteins).

Structure (SMILES): CCCCCCC(O)C(C)O (centres unmarked) [2,3-nonanediol]
- MIC [1]: 2500 µg/mL (≈ 15.6 mM)
- MIC [2]: 1000 µg/mL (≈ 6.24 mM)
- MIC [3]: 2500 µg/mL (≈ 15.6 mM)
- MIC [4]: 2500 µg/mL (≈ 15.6 mM)
- MIC [5]: 5000 µg/mL (≈ 31.2 mM)
- MIC [6]: 2500 µg/mL (≈ 15.6 mM)
- MIC [7]: 1000 µg/mL
- number of microorganisms after 2 days ([8]; 0.1% in o/w emulsion): 2,200,000
- number of microorganisms after 7 days ([8]; 0.1% in o/w emulsion): 66,000
- number of microorganisms after 14 days ([8]; 0.1% in o/w emulsion): 1
- number of microorganisms after 28 days ([8]; 0.1% in o/w emulsion): 1
- number of microorganisms after 2 days ([8]; 0.1% in shampoo): 31,000
- number of microorganisms after 7 days ([8]; 0.1% in shampoo): 200
- number of microorganisms after 14 days ([8]; 0.1% in shampoo): 1
- number of microorganisms after 28 days ([8]; 0.1% in shampoo): 1
- number of microorganisms after 2 days ([8]; 0.4% in shampoo): 1,800
- number of microorganisms after 7 days ([8]; 0.4% in shampoo): 1
- number of microorganisms after 14 days ([8]; 0.4% in shampoo): 1
- number of microorganisms after 28 days ([8]; 0.4% in shampoo): 1
- number of microorganisms after 2 days ([9]; 0.1% in o/w emulsion): 2,000,000
- number of microorganisms after 7 days ([9]; 0.1% in o/w emulsion): 2,500,000
- number of microorganisms after 14 days ([9]; 0.1% in o/w emulsion): 1,900,000
- number of microorganisms after 28 days ([9]; 0.1% in o/w emulsion): 970,000
- number of microorganisms after 2 days ([9]; 0.1% in shampoo): 110,000
- number of microorganisms after 7 days ([9]; 0.1% in shampoo): 29,000
- number of microorganisms after 14 days ([9]; 0.1% in shampoo): 870
- number of microorganisms after 28 days ([9]; 0.1% in shampoo): 1
- number of microorganisms after 2 days ([9]; 0.4% in shampoo): 68,000
- number of microorganisms after 7 days ([9]; 0.4% in shampoo): 14,000
- number of microorganisms after 14 days ([9]; 0.4% in shampoo): 690
- number of microorganisms after 28 days ([9]; 0.4% in shampoo): 1
- number of microorganisms after 2 days ([10]; 0.1% in o/w emulsion): 810,000
- number of microorganisms after 7 days ([10]; 0.1% in o/w emulsion): 27,000
- number of microorganisms after 14 days ([10]; 0.1% in o/w emulsion): 1,100
- number of microorganisms after 28 days ([10]; 0.1% in o/w emulsion): 1
- number of microorganisms after 2 days ([10]; 0.1% in shampoo): 2,300,000
- number of microorganisms after 7 days ([10]; 0.1% in shampoo): 4,200,000
- number of microorganisms after 14 days ([10]; 0.1% in shampoo): 1,800,000
- number of microorganisms after 28 days ([10]; 0.1% in shampoo): 1,100,000
- number of microorganisms after 2 days ([10]; 0.4% in shampoo): 3,200,000
- number of microorganisms after 7 days ([10]; 0.4% in shampoo): 4,200,000
- number of microorganisms after 14 days ([10]; 0.4% in shampoo): 1,300,000
- number of microorganisms after 28 days ([10]; 0.4% in shampoo): 1,400,000
- number of microorganisms after 2 days ([11]; 0.1% in o/w emulsion): 1,200,000
- number of microorganisms after 7 days ([11]; 0.1% in o/w emulsion): 1,100,000
- number of microorganisms after 14 days ([11]; 0.1% in o/w emulsion): 890,000
- number of microorganisms after 28 days ([11]; 0.1% in o/w emulsion): 1,100,000
- number of microorganisms after 2 days ([11]; 0.1% in shampoo): 1,800,000
- number of microorganisms after 7 days ([11]; 0.1% in shampoo): 2,000,000
- number of microorganisms after 14 days ([11]; 0.1% in shampoo): 680,000
- number of microorganisms after 28 days ([11]; 0.1% in shampoo): 530,000
- number of microorganisms after 2 days ([11]; 0.4% in shampoo): 2,100,000
- number of microorganisms after 7 days ([11]; 0.4% in shampoo): 1,800,000
- number of microorganisms after 14 days ([11]; 0.4% in shampoo): 1,200,000
- number of microorganisms after 28 days ([11]; 0.4% in shampoo): 1,100,000
- number of microorganisms after 2 days ([12]; 0.1% in o/w emulsion): 1
- number of microorganisms after 7 days ([12]; 0.1% in o/w emulsion): 1
- number of microorganisms after 14 days ([12]; 0.1% in o/w emulsion): 1
- number of microorganisms after 28 days ([12]; 0.1% in o/w emulsion): 1
- number of microorganisms after 2 days ([12]; 0.1% in shampoo): 160,000
- number of microorganisms after 7 days ([12]; 0.1% in shampoo): 2,000,000
- number of microorganisms after 14 days ([12]; 0.1% in shampoo): 10,000,000
- number of microorganisms after 28 days ([12]; 0.1% in shampoo): 8,800,000
- number of microorganisms after 2 days ([12]; 0.4% in shampoo): 17,000
- number of microorganisms after 7 days ([12]; 0.4% in shampoo): 1
- number of microorganisms after 14 days ([12]; 0.4% in shampoo): 1
- number of microorganisms after 28 days ([12]; 0.4% in shampoo): 1
- sebum reduction [13]: 41%
